Test: Bulk and tapped density of granules / API
Type: physicochemical
Conditions: API alone, prior to granulation and/or formulation
Excerpt: It is within the ability of one of skill in the art to determine the bulk density of a compound or composition using methods generally accepted in the art. However, suitable methods include, for example, the European Pharmacopeia edition 6, Test 2.9.15 “apparent volume,” pages 285-286, EDQM, 2007, and USP 31, vol. 1, test <616> page 231-232, The United States Pharmacopeia Convention, 2008. Another example of a suitable method is described below:
Apparatus: • settling apparatus capable of producing in 1 minute 250±15 taps from a height of 3±0.2 mm. The support for the graduated cylinder with its holder, has a mass of 450±5 g • a 250 ml graduated cylinder (2 ml intervals) with a mass of 220±40 g
Method: Into a dry cylinder, introduce without compacting, 100.0 g (m g) of the test substance. […] Read the unsettled apparent volume (V0) to the nearest milliliter. Carry out 10, 500 and 1250 taps and read the corresponding volumes V10, V500, V1250, to the nearest milliliter. […]
Alternatively, if it is not possible to select 100.0 g, select a test sample of any mass but with a volume between 50 ml and 250 ml, measure its apparent volume, V0 as described above, and weigh the sample and specify the mass in the expression of results. Bulk/apparent density may then be determined in g/ml using the following formula: […]
Tapped apparent density may then be determined in g/ml using the following formula: […]

**Q.** For `Cc1c(Cl)c(C)[n+]([O-])c(Cl)c1-c1noc(-c2cc(O)c(O)c([N+](=O)[O-])c2)n1` [2,5-dichloro-3-(5-(3,4-dihydroxy-5-nitrophenyl)-1,2,4-oxadiazol-3-yl)-4,6-dimethylpyridine 1-oxide], which bulk density is on record?
**A.** The bulk density was “less than 0.1 g/ml”.

**Q.** For `Cc1nc(Cl)c(-c2noc(-c3cc(O)c(O)c([N+](=O)[O-])c3)n2)c(C)c1Cl` [5-[3-(2,5-dichloro-4,6-dimethylpyridin-3-yl)-[1,2,4]oxadiazol-5-yl]-3-nitrobenzene-1,2-diol], which bulk density is on record?
**A.** Its bulk density is “around 0.2 g/ml”.

Source: US20210315824A1, “PHARMACEUTICAL FORMULATIONS COMPRISING NITROCATECHOL DERIVATIVES AND METHODS OF MAKING THE SAME” (BIAL - PORTELA & CA, S.A., priority 2009, published 2021)
